Experimental data as given in ChEMBL document CHEMBL1201862, “PubChem BioAssay data set” (2004).
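Method: 48-hour compound exposure of cells in 96-well plates, five concentrations, linear interpolation of endpoints. At the GI50, growth is halved.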 The source made the active and inactive calls. Cut-off read from the data, not from the text of the source: active = GI50 up to about 1.1 µM and inactive = higher.

Legend:
Test in all cases: NCI tumour cell line growth inhibition, 48 h
[1] = test system: ACHN
[2] = test system: CAKI-1
[3] = test system: HCC 2998
[4] = test system: HL-60
[5] = test system: IGROV-1
[6] = test system: KM12
[7] = test system: M14
[8] = test system: MOLT-4
[9] = test system: NCI-H522
[10] = test system: OVCAR-3
[11] = test system: SF-268
[12] = test system: SF-295
[13] = test system: SN12C
[14] = test system: SNB-75
[15] = test system: SR
[16] = test system: SW-620
[17] = test system: U-251

| Structure (SMILES) | GI50 [1] | GI50 [2] | GI50 [3] | GI50 [4] | GI50 [5] | GI50 [6] | GI50 [7] | GI50 [8] | GI50 [9] | GI50 [10] | GI50 [11] | GI50 [12] | GI50 [13] | GI50 [14] | GI50 [15] | GI50 [16] | GI50 [17] |
| --- | --- | --- | --- | --- | --- | --- | --- | --- | --- | --- | --- | --- | --- | --- | --- | --- | --- |
| CSCCC(N)P(C)(=O)O (centres undefined) | > 100 µM (inactive) | > 100 µM (inactive) | > 100 µM (inactive) | > 100 µM (inactive) | > 100 µM (inactive) | > 100 µM (inactive) | > 100 µM (inactive) | > 100 µM (inactive) | > 100 µM (inactive) | > 100 µM (inactive) | > 100 µM (inactive) | > 100 µM (inactive) | > 100 µM (inactive) | > 100 µM (inactive) | > 100 µM (inactive) | > 100 µM (inactive) | > 100 µM (inactive) |
| CN(C)CCNC(=O)c1ccc(NCCCN(C)CCCNc2ccc(C(=O)NCCN(C)C)c3nc4ccccc4c(O)c23)c2c(O)c3ccccc3nc12 | 0.0466 µM (active) | 0.501 µM (active) | < 0.01 µM (active) | < 0.0229 µM (active) | < 0.01 µM (active) | < 0.0116 µM (active) | 0.187 µM (active) | < 0.01 µM (active) | < 0.01 µM (active) | 0.0228 µM (active) | < 0.01 µM (active) | 0.0442 µM (active) | < 0.01 µM (active) | < 0.01 µM (active) | < 0.01 µM (active) | 0.0171 µM (active) | < 0.01 µM (active) |
| CO/N=C\c1ccc2c(c1)Sc1ccccc1O2 | > 100 µM (inactive) | > 100 µM (inactive) | 45.7 µM (inactive) | 26.2 µM (inactive) | 62.4 µM (inactive) | 42.3 µM (inactive) | 30.5 µM (inactive) | 54.7 µM (inactive) | – | > 100 µM (inactive) | 72.3 µM (inactive) | 36.3 µM (inactive) | > 100 µM (inactive) | 52.5 µM (inactive) | 23.4 µM (inactive) | 73.8 µM (inactive) | 54.5 µM (inactive) |
| CCOP(=Nc1ccc(N(C)C)cc1)(OCC)OCC | > 100 µM (inactive) | > 100 µM (inactive) | > 100 µM (inactive) | – | > 100 µM (inactive) | > 100 µM (inactive) | > 100 µM (inactive) | > 100 µM (inactive) | > 100 µM (inactive) | > 100 µM (inactive) | > 100 µM (inactive) | > 100 µM (inactive) | – | > 100 µM (inactive) | – | – | > 100 µM (inactive) |
| c1cc2nnc1SCCCSc1ccc(nn1)SCCCS2 | > 43.7 µM (inactive) | > 45.4 µM (inactive) | > 37.8 µM (inactive) | > 19.9 µM (inactive) | > 36.7 µM (inactive) | > 35.6 µM (inactive) | > 25.9 µM (inactive) | > 20.8 µM (inactive) | > 100 µM (inactive) | > 43.2 µM (inactive) | 22.2 µM (inactive) | 20.5 µM (inactive) | > 35.8 µM (inactive) | 25.1 µM (inactive) | > 26 µM (inactive) | > 53.3 µM (inactive) | 17.3 µM (inactive) |
| C=CCN1C(=O)/C(=C/c2ccc(OC)cc2)NC1=S | > 100 µM (inactive) | > 100 µM (inactive) | > 100 µM (inactive) | 0.0355 µM (active) | > 100 µM (inactive) | 97.7 µM (inactive) | 53.3 µM (inactive) | 4.59 µM (inactive) | 41.6 µM (inactive) | > 100 µM (inactive) | > 100 µM (inactive) | 54.2 µM (inactive) | > 100 µM (inactive) | > 100 µM (inactive) | 29.3 µM (inactive) | > 100 µM (inactive) | 82.2 µM (inactive) |
| Cc1cc(O)c(C(c2cccnc2)c2c(O)cc(C)[nH]c2=O)c(=O)[nH]1 | > 100 µM (inactive) | > 100 µM (inactive) | – | > 100 µM (inactive) | > 100 µM (inactive) | > 100 µM (inactive) | > 100 µM (inactive) | > 100 µM (inactive) | > 100 µM (inactive) | > 100 µM (inactive) | > 100 µM (inactive) | > 100 µM (inactive) | > 100 µM (inactive) | – | > 100 µM (inactive) | – | > 100 µM (inactive) |
| CC(=O)O[C@@H]1C2=C(C3=C([O-])C4=CC=CC(=O)C4C(=O)C3=C2[N+]#N)[C@H](OC(C)=O)[C@@H](OC(C)=O)[C@]1(C)O (some centres undefined) | 0.141 µM (active) | 0.407 µM (active) | 0.262 µM (active) | 0.105 µM (active) | 0.347 µM (active) | 0.333 µM (active) | 0.177 µM (active) | 0.0959 µM (active) | 0.173 µM (active) | 0.502 µM (active) | 0.302 µM (active) | 0.385 µM (active) | – | 0.186 µM (active) | 0.101 µM (active) | 0.284 µM (active) | – |
| Cc1cccc(/C=C2\CCCc3ccccc3C2=O)c1 | 26.5 µM (inactive) | 30.4 µM (inactive) | – | 12.1 µM (inactive) | 21.6 µM (inactive) | 13.4 µM (inactive) | 17.9 µM (inactive) | 16.9 µM (inactive) | 12.7 µM (inactive) | 26.3 µM (inactive) | 15.2 µM (inactive) | 19.5 µM (inactive) | 17.9 µM (inactive) | 42.2 µM (inactive) | 15 µM (inactive) | 16.8 µM (inactive) | 18.6 µM (inactive) |
| CC(C)CC(NC(=O)OCc1ccccc1)C(=O)NCCCCC(N)C(=O)NC(CCCCNC(=O)C(CC(C)C)NC(=O)OCc1ccccc1)C(=O)NC(CCCCNC(=O)C(CC(C)C)NC(=O)OCc1ccccc1)C(=O)NC(CCCCNC(=O)C(CC(C)C)NC(=O)OCc1ccccc1)C(=O)NC(CCCCNC(=O)C(CC(C)C)NC(=O)OCc1ccccc1)C(=O)NC(CCCCNC(=O)C(CC(C)C)NC(=O)OCc1ccccc1)C(=O)O (centres undefined) | > 100 µM (inactive) | – | > 100 µM (inactive) | > 100 µM (inactive) | > 100 µM (inactive) | – | – | > 100 µM (inactive) | > 100 µM (inactive) | > 100 µM (inactive) | – | – | > 100 µM (inactive) | – | > 100 µM (inactive) | > 100 µM (inactive) | > 100 µM (inactive) |
| CC(Oc1ccccc1Cl)C(=O)NN1C(=O)CSC1c1ccc(Cl)cc1 (centres undefined) | 27.2 µM (inactive) | 23.6 µM (inactive) | 18.4 µM (inactive) | 7.64 µM (inactive) | 20.7 µM (inactive) | 18.1 µM (inactive) | 18.4 µM (inactive) | – | 16 µM (inactive) | 23.3 µM (inactive) | 20.6 µM (inactive) | 18.5 µM (inactive) | 14.8 µM (inactive) | 22.9 µM (inactive) | < 0.01 µM (active) | 23.4 µM (inactive) | 17.8 µM (inactive) |
| O=C(N/N=C(COc1ccccc1Cl)\N=C\c1ccncc1)c1ccncc1 | > 100 µM (inactive) | > 100 µM (inactive) | > 100 µM (inactive) | > 100 µM (inactive) | > 100 µM (inactive) | > 100 µM (inactive) | > 100 µM (inactive) | 61.1 µM (inactive) | > 100 µM (inactive) | > 100 µM (inactive) | > 100 µM (inactive) | > 100 µM (inactive) | > 100 µM (inactive) | 15.9 µM (inactive) | – | > 100 µM (inactive) | > 100 µM (inactive) |
| O=C1/C(=C/c2ccccc2)NC(=S)N1CN1CCOCC1 | > 100 µM (inactive) | – | – | – | > 100 µM (inactive) | > 100 µM (inactive) | > 100 µM (inactive) | > 100 µM (inactive) | – | > 100 µM (inactive) | > 100 µM (inactive) | > 100 µM (inactive) | > 100 µM (inactive) | > 100 µM (inactive) | > 100 µM (inactive) | > 100 µM (inactive) | > 100 µM (inactive) |
| c1cc(CN2CCNCCNCCNCC2)cc(CN2CCNCCNCCNCC2)c1 | > 100 µM (inactive) | – | > 100 µM (inactive) | – | > 100 µM (inactive) | > 100 µM (inactive) | > 100 µM (inactive) | > 100 µM (inactive) | – | > 100 µM (inactive) | > 100 µM (inactive) | > 100 µM (inactive) | > 100 µM (inactive) | > 100 µM (inactive) | > 100 µM (inactive) | > 100 µM (inactive) | > 100 µM (inactive) |
| CCOC(=O)c1cc2c([N+](=O)[O-])c(NC(C)=O)ccc2s1 | 41.7 µM (inactive) | 41.6 µM (inactive) | > 100 µM (inactive) | 31.7 µM (inactive) | 72.9 µM (inactive) | 74.8 µM (inactive) | > 100 µM (inactive) | 31.4 µM (inactive) | 34.2 µM (inactive) | 38.4 µM (inactive) | 50.7 µM (inactive) | 69.3 µM (inactive) | 92 µM (inactive) | 19.3 µM (inactive) | – | > 100 µM (inactive) | 44.6 µM (inactive) |
| Cc1ccc(S(=O)(=O)N/N=C2/CCC(C(C)(C)C)CC2Br)cc1 (centres undefined) | 34.1 µM (inactive) | 28.1 µM (inactive) | – | 41.9 µM (inactive) | 38.6 µM (inactive) | 20.8 µM (inactive) | 17.9 µM (inactive) | 20 µM (inactive) | 18.2 µM (inactive) | 16.2 µM (inactive) | 36.6 µM (inactive) | 34.5 µM (inactive) | 17.3 µM (inactive) | 27.4 µM (inactive) | 39 µM (inactive) | 23.9 µM (inactive) | 8.24 µM (inactive) |
| CN(O)C(=O)CCCC(=O)NCC(C)(C)CNC(=O)CCCC(=O)N(C)O | > 100 µM (inactive) | > 100 µM (inactive) | > 100 µM (inactive) | > 100 µM (inactive) | > 100 µM (inactive) | > 100 µM (inactive) | > 100 µM (inactive) | > 100 µM (inactive) | – | > 100 µM (inactive) | > 100 µM (inactive) | > 100 µM (inactive) | – | > 100 µM (inactive) | > 100 µM (inactive) | > 100 µM (inactive) | > 100 µM (inactive) |
